Reference: patent publication US9091700B2, “Modified peptide substrate” (McMaster University, priority 2005, dated 2015)

How the values were obtained:
Type in all cases: biochemical
human alpha thrombin = biological target: T1, human alpha thrombin (Homo sapiens, UniProt P00734); experiment: Reaction of thrombin with S2238 SEPHAROSE beads or free S2238, absorbance at 405 nm of supernatant; conditions: + thrombin + TSP buffer; 100 nM thrombin, 23° C.
T1 construct: 100 nM human alpha thrombin (Enzyme Research Laboratories); purchased Enzyme Research Laboratories
Protocol: 0.5 mL of resuspended S2238 SEPHAROSE™ beads was placed in each of 2 microfuge tubes (1.5 mL capacity), followed by centrifugation at 12000 g for 1 minute and removal of the resultant supernatant. Beads in each tube were resuspended in 0.5 mL of 0.02 M Tris-HCl 0.15 M NaCl 0.6% polyethylene glycol 8000 pH 7.4 (TSP), centrifuged for 1 minute and the resultant supernatant discarded. A solution of 100 nM human alpha thrombin (Enzyme Research Laboratories) in TSP was prepared. 0.5 mL of thrombin was added to one tube of packed S2238 SEPHAROSE™ beads (tube 1) and 0.5 mL of TSP was added to the other tube of S2238-SEPHAROSE™ beads (tube 2). In a separate empty tube, 0.05 mL of free (not conjugated to beads) S2238 stock solution (12.5 mg of S2238/mL of H2O)+0.15 mL of TSP+0.5 mL of 100 nM thrombin were added (tube 3). Finally, in a separate empty tube, 0.05 mL of free S2238 stock solution+0.65 mL of TSP were added (tube 4). All of the tubes were capped and tubes+contents were gently shaken by inversion manually for 10 min at 23° C. Following inversion mixing, tubes were centrifuged at 12000 g for 1 min and 0.2 mL of supernatant fluid from each tube quickly removed to separate wells of a 96-well microtitre plate and the absorbance at 405 nm measured.

thrombin-A2M [1] = biological target: T2, thrombin-A2M (Homo sapiens, UniProt P00734); experiment: Plasma thrombin generation, free thrombin neutralized by antithrombin+heparin before substrate; conditions: plasma samples with thrombin-A2M only (free thrombin neutralized by antithrombin+heparin); FIG. 5
T2 construct: 0.2 mg thrombin (Enzyme Research Laboratories, South Bend, 1N, USA)/mL HBS; purchased Enzyme Research Laboratories (thrombin); Sigma (A2M)
Protocol: Plasma is taken and the fibrinogen removed by reaction with ancrod enzyme to form a fibrin clot that is wound out to give the resultant defibrinated plasma. At time zero, tissue factor (Thromborel S)+CaCl2 are added to start thrombin generation in the pre-warmed defibrinated plasma. At certain time points, subsamples from the reaction mixture are taken into Na2EDTA to stop further thrombin generation by chelating the Ca^2+. Thrombin activity in the time sample (containing both free thrombin and thrombin bound to alpha-2-macroglobulin (A2M)) was then detected by mixing with either free S2238 substrate in buffer or sterically hindered S2238 substrate (S2238-Agarose beads) suspended in buffer. […]
12 mm (ID)×75 mm (L) polycarbonate plastic test tubes were used for plasma thrombin generation. • 1. […] Aliquots of 2004 of supernatant from each sample were placed in 96-well plate wells and the absorbance at 405 nm measured.
The experiment described above was repeated, except that at step 4, 25 μL of time sample was added to 5 μL of 50 U antithrombin/mL PBS (7.2 mg antithrombin/mL)+2 μl of 100 U heparin/mL 0.15M NaCl on ice. […] Absorbance detected at 405 nm was essentially due to substrate reaction with thrombin-A2M alone (free thrombin having been neutralized by antithrombin+heparin).

thrombin [2] = biological target: T3, thrombin (Homo sapiens, UniProt P00734); experiment: Further comparison of reactivities (Example 3), change in absorbance; conditions: reactant Thrombin
T3 construct: 0.2 mg thrombin (Enzyme Research Laboratories, South Bend, 1N, USA)/mL HBS; purchased Enzyme Research Laboratories
Protocol: (§1) Thrombin and thrombin-A2M were added to samples of S2238 and S2238-Agarose.

thrombin-A2M [3] = biological target: T2, thrombin-A2M; experiment: as above; conditions: reactant thrombin-A2M
Protocol: as §1

thrombin [4] = biological target: T3, thrombin; experiment: Reaction of soluble S2238 in 96-well plate, change in absorbance at 405 nm over 100 seconds; conditions: for ΔA: absorbance 405 nm over 100 seconds
Protocol: (§2) A solution of 0.05M HEPES 0.15M NaCl pH 7.5 (HBS) was prepared. Thrombin-A2M was prepared by reaction of 40 μL of 5 mg A2M (Sigma)/mL+40 μL of 0.2 mg thrombin (Enzyme Research Laboratories, South Bend, 1N, USA)/mL HBS for 40 to 60 minutes at 23° C. (solution #1). Solutions of 40 μL of 5 mg A2M/mL+40 μL HBS (solution #2) and 40 μL of 0.2 mg thrombin/mL+40 μL HBS (solution #3) were prepared.
(§3) The following reactions with S2238 were carried out in 96-well plate wells. • 1. 5 μL of solution #1 were added to 10 uL of 0.5 mg antithrombin (purified antithrombin III protein, Affinity Biologicals, Ancaster, Ontario, Canada)/mL HBS+1 μL of 100 U heparin (Leo Laboratories, Ajax, Ontario, Canada)/mL HBS+74 μL HBS. After 10 minutes, 10 μL of 3.192 mg S2238/mL H2O was added with mixing, absorbance readings at 405 nm measured every 10 seconds for 100 seconds and the change in absorbance over that time recorded (AA). • 2. 5 μL of solution #2 were added to 10 uL of 0.5 mg antithrombin/mL HBS+1 μL of 100 U heparin/mL HBS+74 μL HBS. After 10 minutes, 10 μL of 3.192 mg S2238/mL H2O was added with mixing, absorbance readings at 405 nm measured every 10 seconds for 100 seconds and the change in absorbance over that time recorded (AA). • 3. 5 μL of solution #3 were added to 10 uL of 0.5 mg antithrombin/mL HBS+1 μL of 100 U heparin/mL HBS+74 μL HBS. After 10 minutes, 10 μL of 3.192 mg S2238/mL H2O was added with mixing, absorbance readings at 405 nm measured every 10 seconds for 100 seconds and the change in absorbance over that time recorded (AA). • 4. 5 μL of solution #1 were added to 85 uL of HBS. After 10 minutes, 10 μL of 3.192 mg S2238/mL H2O was added with mixing, absorbance readings at 405 nm measured every 10 seconds for 100 seconds and the change in absorbance over that time recorded (AA). • 5. 5 μL of solution #2 were added to 85 uL of HBS. After 10 minutes, 10 μL of 3.192 mg S2238/mL H2O was added with mixing, absorbance readings at 405 nm measured every 10 seconds for 100 seconds and the change in absorbance over that time recorded (AA). • 6. 5 μL of solution #3 were added to 85 uL of HBS. After 10 minutes, 10 μL of 3.192 mg S2238/mL H2O was added with mixing, absorbance readings at 405 nm measured every 10 seconds for 100 seconds and the change in absorbance over that time recorded (LA).

thrombin-A2M [5] = biological target: T2, thrombin-A2M; experiment: as above; conditions: for ΔA: absorbance 405 nm over 100 seconds
Protocol: as §2, §3

A2M = biological target: T4, A2M (Homo sapiens, UniProt P01023); experiment: as above; conditions: absorbance 405 nm over 100 seconds
T4 construct: purchased Sigma
T4 sequence (P01023 24-1474): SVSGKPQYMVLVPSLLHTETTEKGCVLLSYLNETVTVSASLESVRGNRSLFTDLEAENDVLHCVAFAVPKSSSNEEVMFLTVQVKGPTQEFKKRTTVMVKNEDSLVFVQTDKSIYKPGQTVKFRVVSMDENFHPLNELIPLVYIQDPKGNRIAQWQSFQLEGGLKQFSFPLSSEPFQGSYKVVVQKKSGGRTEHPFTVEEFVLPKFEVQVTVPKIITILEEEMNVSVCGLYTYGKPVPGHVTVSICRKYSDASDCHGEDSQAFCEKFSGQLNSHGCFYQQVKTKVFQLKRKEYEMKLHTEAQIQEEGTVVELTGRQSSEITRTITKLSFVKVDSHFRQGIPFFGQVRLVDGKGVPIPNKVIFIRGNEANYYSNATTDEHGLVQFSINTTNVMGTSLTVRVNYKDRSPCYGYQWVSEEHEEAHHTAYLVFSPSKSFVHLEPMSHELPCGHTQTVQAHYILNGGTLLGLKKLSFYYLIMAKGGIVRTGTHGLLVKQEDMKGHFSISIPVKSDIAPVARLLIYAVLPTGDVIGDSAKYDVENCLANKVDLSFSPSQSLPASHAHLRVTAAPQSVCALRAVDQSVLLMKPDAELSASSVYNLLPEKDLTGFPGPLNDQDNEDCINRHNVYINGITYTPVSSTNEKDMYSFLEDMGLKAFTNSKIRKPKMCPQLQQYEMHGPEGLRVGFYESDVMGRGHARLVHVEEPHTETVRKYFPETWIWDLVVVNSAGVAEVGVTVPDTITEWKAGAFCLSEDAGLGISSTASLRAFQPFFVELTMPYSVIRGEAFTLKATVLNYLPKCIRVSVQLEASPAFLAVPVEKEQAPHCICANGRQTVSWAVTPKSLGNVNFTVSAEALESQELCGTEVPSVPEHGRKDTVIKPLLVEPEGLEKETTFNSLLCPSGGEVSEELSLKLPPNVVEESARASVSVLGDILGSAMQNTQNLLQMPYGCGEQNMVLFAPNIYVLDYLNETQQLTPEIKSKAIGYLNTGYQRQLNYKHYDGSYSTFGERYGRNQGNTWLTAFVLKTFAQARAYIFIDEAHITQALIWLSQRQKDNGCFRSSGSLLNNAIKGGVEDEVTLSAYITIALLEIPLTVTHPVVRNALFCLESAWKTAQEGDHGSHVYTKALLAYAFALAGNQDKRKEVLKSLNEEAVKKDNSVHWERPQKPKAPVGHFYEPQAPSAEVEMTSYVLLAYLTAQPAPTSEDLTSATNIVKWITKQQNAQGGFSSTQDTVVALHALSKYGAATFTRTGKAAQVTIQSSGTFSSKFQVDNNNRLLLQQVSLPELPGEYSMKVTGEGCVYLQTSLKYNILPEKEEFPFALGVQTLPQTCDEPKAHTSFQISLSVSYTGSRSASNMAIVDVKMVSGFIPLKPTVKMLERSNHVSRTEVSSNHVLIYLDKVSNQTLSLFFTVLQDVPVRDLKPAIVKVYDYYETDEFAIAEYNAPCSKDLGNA
Protocol: as §2, §3

[6] = tested on: Total Thrombin (Free Thrombin+Thrombin-A2M); experiment: Plasma thrombin generation, subsamples detected with free S2238 or S2238-Agarose; conditions: for Thrombin activity detected (absorbance at 405 nm), in words: plasma samples with free thrombin+thrombin-A2M, FIG. 5
Protocol: Plasma is taken and the fibrinogen removed by reaction with ancrod enzyme to form a fibrin clot that is wound out to give the resultant defibrinated plasma. At time zero, tissue factor (Thromborel S)+CaCl2 are added to start thrombin generation in the pre-warmed defibrinated plasma. At certain time points, subsamples from the reaction mixture are taken into Na2EDTA to stop further thrombin generation by chelating the Ca^2+. Thrombin activity in the time sample (containing both free thrombin and thrombin bound to alpha-2-macroglobulin (A2M)) was then detected by mixing with either free S2238 substrate in buffer or sterically hindered S2238 substrate (S2238-Agarose beads) suspended in buffer. In order to determine the ability of free S2238 or S2238-Agarose to detect thrombin-A2M, a similar experiment to the above method was carried out, except that all free thrombin was inhibited first by mixing with antithrombin+heparin prior to incubation with substrate. […] Thus, early time point samples (i.e. 60 seconds) would contain more free thrombin than thrombin-A2M, while later time point samples (i.e. 300 seconds) would contain much more thrombin-A2M than free thrombin.
12 mm (ID)×75 mm (L) polycarbonate plastic test tubes were used for plasma thrombin generation. • 1. Defibrination of Plasma: • a. 800 μL of Plasma was incubated with 10 μL of 30 U/mL Ancrod stock at 37° C. for 10 minutes. • b. After incubation, fibrin clot that formed was wound out on a plastic rod, leaving supernatant defibrinated plasma. • c. Test tube was placed on ice for 10 minutes. • d. After 10-minute incubation, any further clots were wound out. • e. Defibrinated plasma was stored on ice. • 2. The activator solution (12.5 μL Thromborel S+4.0 μL 1M CaCl2+183.5 μL HBS) was warmed at 37° C. in a tube. In a separate tube, 150 μL of defibrinated plasma was warmed at 37° C. • 3. At t=0, 150 μL of activator solution was mixed with 150 μL of defibrinated plasma, at 37° C. • 4. […] Aliquots of […] of supernatant from each sample were placed in 96-well plate wells and the absorbance at 405 nm measured.

For H-D-Phe-Pip-Arg-pNA [S2238], the “Absorbance at 405 nm of supernatant after 10 minutes incubation and 1 minute centrifugation” value (human alpha thrombin) was 1.143, the “Thrombin activity detected (absorbance at 405 nm), in words” value (from here on “Thrombin activity detected”) (thrombin-A2M [1]) was “significant thrombin activity” and the “Thrombin Activity (Δ absorbance/minute)” value (thrombin [2]) was 0.57 Δ absorbance/minute. For the same substance, the “Thrombin Activity (Δ absorbance/minute)” value (thrombin-A2M [3]) was 0.48 Δ absorbance/minute, the ΔA (thrombin [4]; Thrombin added) was 0.95 and the “Reaction with free thrombin (in words)” value (thrombin [4]; summary of Table 1) was “reacts readily”. The ΔA (thrombin [4]; thrombin + antithrombin + heparin added) was 0, the ΔA (thrombin-A2M [5]; Thrombin-A2M added) was 0.8 and the “Reaction with thrombin-A2M (in words)” value (thrombin-A2M [5]; summary of Table 1) was “reacts readily”. The ΔA (thrombin-A2M [5]; thrombin-A2M + antithrombin + heparin added) was 0.8, the ΔA (A2M; A2M + antithrombin + heparin added) was 0 and the ΔA (A2M; A2M added) was 0. For the same substance, the “Which thrombin species accounts for the detected activity (comparison of samples)” value ([6]; comparison of free thrombin+thrombin-A2M samples with thrombin-A2M only samples, 60 sec or 300 sec) was “the vast majority of soluble S2238 activity is due to thrombin-A2M”, the “Thrombin activity detected” value ([6]; 60 seconds after plasma activation) was “significant activity” and the “Thrombin activity detected” value ([6]; 300 seconds after plasma activation) was “significant thrombin substrate activity”.
